Measured values: article PMC4850295, “Using a Genetically Encoded Sensor to Identify Inhibitors of Toxoplasma gondii Ca^2+ Signaling” (The Journal of Biological Chemistry, 2016)
Several values for one entry are separate records, joined by “and”; a condition that tells them apart may be missing. Equal values may be shown once.

Each compound was assayed on T1, GCaMP5-expressing T. gondii. Conditions: 100 uM zaprinast stimulation, 10 min pretreatment, mean of two replicates, 0.23 h, 10 µM.
T1 construct: whole extracellular parasites expressing GCaMP5 Ca2+ sensor
Parameters: species or system GCaMP5-expressing Toxoplasma gondii, extracellular; GCaMP5 fluorescence (cytosolic Ca2+) after 100 uM zaprinast in compound-pretreated extracellular parasites, background-subtracted, relative to zaprinast alone
Summary of the method: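 Extracellular GCaMP5-expressing parasites in Ringer's solution were pretreated with compounds (single 10 μM dose, two biological replicates) for 10 min, then stimulated with 100 μM zaprinast at 37 °C for 4 min. Fluorescence read at 485/525 nm, basal subtracted, expressed as fold change relative to zaprinast-only parasites.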

Row | SMILES | fold change in fluorescence relative to zaprinast alone
1 | CS(=O)(=O)CCNCc1ccc(-c2ccc3ncnc(Nc4ccc(OCc5ccccc5)c(Cl)c4)c3c2)o1 [GW574783B] | 0.7755 and 0.8833

Same assay, conditions: 100 uM zaprinast stimulation; 10 min pretreatment; mean of two replicates; 0.23 h

Row | SMILES | fold change in fluorescence relative to zaprinast alone
2 | C/C(Nc1ccc(S(N)(=O)=O)cc1)=C1/C(=O)Nc2ccccc21 [GW335962X] | 1.108
3 | CCn1cnc2c(N)ncnc21 [GW345098X] | 1.056
4 | NS(=O)(=O)c1ccc(N/N=C2\C(=O)Nc3cccc(CCc4ccncc4)c32)cc1 [GW352430A] | 1.031
5 | O=C1Nc2ccc(C(=O)c3ccco3)cc2C1=Cc1cc(Cl)c(O)c(Cl)c1 [GW406108X] | 1.311
6 | COC(=O)c1cncc(/C=C/c2c(C)cc(O)cc2C)c1 [GW406731X] | 0.8759
7 | c1ccc(Oc2ccc(Nc3ccnc4ccc(-c5ccccn5)cc34)cc2)cc1 [GW407034X] | 0.6551
8 | COc1cc2ncnc(Nc3ccc(C)c(O)c3)c2cc1OC [GW410563A] | 1.297
9 | CN(C)c1ccc2c(c1)/C(=C/Nc1ccc(S(N)(=O)=O)cc1)C(=O)N2 [GW416469X] | 1.109
10 | CC(C)COC(=O)c1ccc2c(c1)/C(=C/Nc1ccc(S(N)(=O)=O)cc1)C(=O)N2 [GW416981X] | 1.146
11 | Cc1cc(O)cc(C)c1/C=C/c1cncc(C(=O)N(C)C)c1 [GW427984X] | 1.241
12 | O=C1Nc2ccc(-c3cccnc3)cc2C1=Cc1cc(Br)c(O)c(Br)c1 [GW429374A] | 1.179
13 | CNC(=O)Oc1cc(C)c(/C=C/c2cncc(C(=O)NC)c2)c(C)c1 [GW432441X] | 1.157
14 | Fc1ccc(-c2nn3ccccc3c2-c2ccncc2)cc1 [GW434756X] | 0.1696
15 | Cc1cc(O)cc(C)c1/C=C/c1cncc(C(N)=O)c1 [GW435821X] | 1.076
16 | Cc1cc(O)cc(C)c1/C=C/c1cncc(C(=O)OC(C)(C)C)c1 [GW439255X] | 1.014
17 | COc1cc2nccc(Nc3ccc(OCc4ccc(NC(C)=O)cc4)cc3)c2cc1OC [GW440135A] | 1.118
18 | c1ccc(-c2ccc3c(Nc4ccc5[nH]ncc5c4)ccnc3c2)nc1 [GW440137A] | 1.678
19 | c1ccc(-c2ccc3c(Nc4ccc5[nH]ccc5c4)ccnc3c2)nc1 [GW440138A] | 1.081
20 | Cc1ccc(O)cc1Nc1ccnc2cc(-c3ccccn3)ccc12 [GW440139B] | 1.023
21 | Cc1ccc(C(=O)Nc2ccc(Nc3ccnc4cc(-c5ccccn5)ccc34)cc2O)cc1 [GW440146A] | 2.166
22 | CC(=O)Nc1ccc(COc2ccc(Nc3ccnc4cc(-c5ccccn5)ccc34)cc2)cc1 [GW440148A] | 1.657
23 | Cn1cc(C=C2C(=O)Nc3cccnc32)c2ccccc21 [GW441756X] | 1.234
24 | Cc1cc(O)cc(C)c1/C=C/c1cncc(-c2nn[nH]n2)c1 [GW441806A] | 1.117
25 | CNC(=O)c1cncc(/C=C/c2c(C)cccc2C)c1 [GW445012X] | 1.157

Row | SMILES | fold change in fluorescence relative to zaprinast alone
26 | CNC(=O)c1cncc(/C=C/c2c(Cl)cccc2Cl)c1 [GW445014X] | 1.122
27 | CNC(=O)c1cncc(/C=C/c2ccccc2C)c1 [GW445015X] | 1.264
28 | CCc1cccc(CC)c1/C=C/c1cncc(C(=O)NC)c1 [GW450241X] | 1.076
29 | Cc1ccn2nc(-c3ccc(F)cc3)c(-c3ccncc3)c2c1 [GW457859A] | 0.07245
30 | Cc1cc(-c2ccco2)cc(C)c1/C=C/c1cncc(-c2nn[nH]n2)c1 [GW458344A] | 1.482
31 | CS(=O)(=O)CCNCc1ccc(-c2ccc3ncnc(Nc4ccc(OCc5ccccc5)cc4)c3c2)o1 [GW458787A] | 0.4223
32 | CS(=O)(=O)CCNCc1nc(-c2ccc3ncnc(Nc4ccc(F)c(Cl)c4)c3c2)cs1 [GW461104B] | 0.6524
33 | Cc1ccc2c(-c3ccncc3)c(-c3ccc(F)cc3)nn2c1 [GW461484A] | 0.2133
34 | Cc1cccc2c(-c3ccncc3)c(-c3ccc(F)cc3)nn12 [GW461487A] | 0.2322
35 | Cc1c(O)cccc1Nc1ccnc2ccc(C(F)(F)F)cc12 [GW466413A] | 1.009
36 | COc1cccc2c(-c3ccncc3)c(-c3ccc(F)cc3)nn12 [GW468513X] | 0.06975
37 | Fc1ccc(-c2nn3cccc(F)c3c2-c2ccncc2)cc1 [GW475620X] | 0.2984
38 | CC(C)c1ccc(O)cc1Nc1ccnc2ccc(C(F)(F)F)cc12 [GW482059X] | 1.143
39 | CC(=O)c1c(-c2ccncc2)[nH]c(-c2ccncc2)c1C [GW493036X] | 1.057
40 | Oc1cccc(Nc2ccnc3cc(-c4ccncc4)ccc23)c1 [GW494601A] | 1.032
41 | COc1cc(Nc2ccnc3cc(-c4ccncc4)ccc23)cc(OC)c1OC [GW494610A] | 0.2498
42 | Cc1ccc(C(=O)Nc2ccc(Nc3ccnc4cc(-c5nccs5)ccc34)cc2O)cc1 [GW494702A] | 0.9828
43 | Cc1cc(NCC(c2ccccc2)c2ccccc2)nc(NCc2ccc(C(F)(F)F)cc2)n1 [GW497681X] | 1.268
44 | COc1cc(C=NNc2ncnc3c2cnn3-c2ccccc2)ccc1O [GW513184X] | 0.5493
45 | Fc1ccc(-c2nn3c(OCC(F)(F)F)cccc3c2-c2ccncc2)cc1 [GW514784X] | 0.04564
46 | CSc1cccc2c(-c3ccncn3)c(-c3ccc(F)cc3)nn12 [GW514786X] | 0.1155
47 | Cc1cccc2c(-c3ccncn3)c(-c3ccc(F)cc3)nn12 [GW515532X] | 0.6118
48 | Nc1nc(-c2ccccn2)c(-c2ccnc3ccccc23)s1 [GW548057X] | 0.7803
49 | c1ccc(Nc2ncc(-c3ccccc3)o2)cc1 [GW549390X] | 1.88

Row | SMILES | fold change in fluorescence relative to zaprinast alone
50 | Fc1cc(Cl)ccc1Nc1ccnc2cc(I)ccc12 [GW551191X] | 1.044
51 | Oc1cc(Nc2ccnc3cc(I)ccc23)ccc1F [GW552771X] | 0.9648
52 | Nc1n[nH]c2nnc(-c3ccccc3)c(-c3ccccc3)c12 [GW554060X] | 1.19
53 | Cc1ccc(O)cc1Nc1ccnc2cc(-c3ccc(CN4CCCCC4)o3)ccc12 [GW557777X] | 0.8105
54 | Cc1ccc(O)cc1Nc1ccnc2ccc(S(C)(=O)=O)cc12 [GW559768X] | 1.199
55 | Fc1cc(Cl)ccc1Nc1ccnc2cc(-c3ccc(CN4CCSCC4)o3)ccc12 [GW560106X] | 0.6773
56 | Fc1cc(Cl)ccc1Nc1ccnc2cc(-c3ccc(CN4CCOCC4)o3)ccc12 [GW560109X] | 0.545
57 | Fc1cc(Cl)ccc1Nc1ccnc2cc(-c3ccc(CN4CCCCC4)o3)ccc12 [GW560116X] | 0.6823
58 | N#Cc1ccc2c(-c3ccnc(NC4CC4)n3)c(-c3ccc(F)cc3)nn2c1 [GW561436X] | 0.8796
59 | CS(=O)(=O)CCNCc1coc(-c2ccc3ncnc(Nc4ccc(OCc5ccccc5)cc4)c3c2)c1 [GW566221B] | 0.9966
60 | CN1CCN(Cc2ccc(-c3ccc4c(Nc5ccc(Oc6ccccn6)cc5)ccnc4c3)o2)CC1 [GW567140X] | 1.304
61 | c1ccc(Oc2ccc(Nc3ccnc4cc(-c5ccc(CN6CCNCC6)o5)ccc34)cc2)nc1 [GW567142A] | 0.8742
62 | c1ccc(Oc2ccc(Nc3ccnc4cc(-c5ccc(CN6CCCCC6)o5)ccc34)cc2)nc1 [GW567143X] | 0.8249
63 | c1ccc(Oc2ccc(Nc3ccnc4cc(-c5ccc(CNCCN6CCOCC6)o5)ccc34)cc2)nc1 [GW567145X] | 0.643
64 | CN(C)Cc1ccc(-c2ccc3c(Nc4ccc(Oc5ccccn5)cc4)ccnc3c2)o1 [GW567148X] | 1.129
65 | Nc1nccc(-c2c(-c3ccc(F)cc3)nn3cc(C(F)(F)F)ccc23)n1 [GW568326X] | 1.261
66 | OCCCNc1nccc(-c2c(-c3ccc(F)cc3)nn3cc(C(F)(F)F)ccc23)n1 [GW569293X] | 0.8575
67 | CS(=O)(=O)CCNCc1nc(-c2ccc3ncnc(Nc4ccc(OCc5cccc(C(F)(F)F)c5)cc4)c3c2)cs1 [GW569530A] | 1.148
68 | CCN(CC)S(=O)(=O)c1ccc(OC)c(Nc2ncc(-c3ccccc3)o2)c1 [GW572401X] | 1.034
69 | N#Cc1c(NC(=O)c2ccccc2F)sc2c1CCCC2 [GW572738X] | 1.241
70 | CS(=O)(=O)CCNCc1ccc(-c2ccc3ncnc(Nc4ccc(OCc5ccccc5)c(C(F)(F)F)c4)c3c2)o1 [GW574782A] | 0.7605
71 | COc1ccc(Nc2ncc(-c3ccccc3)o2)cc1OC [GW575533A] | 1.197

Same assay, conditions: 0.23 h, 10 µM

Row | SMILES | % of control remaining
72 | NS(=O)(=O)c1ccc(Nc2ncc(-c3ccccc3)o2)cc1 [GW572399X] | 1.225
